Data published in patent US20160213714A1, “INDUCTION OF CELLULAR SENESCENCE FOR TISSUE THERAPIES” (Everon Biosciences, Inc., priority 2015, published 2016).

Assays:
A549 cancer cells = assay: Senescence induction (SA-β-Gal activity, morphology) of bleomycin-treated cells; format: cell-based; conditions: 50 ug/ml for 72 hours; stained 7 days post-treatment
Description: (§1) FIG. 1: Senescence-associated beta-galactosidase (SA-β-Gal) activity of bleomycin-treated cells. A549 cancer cells (panel A) and primary human WI-38 fibroblasts (panel B) were treated for 72 hours with 50 ug/ml or 15 ug/ml of bleomycin, respectively. Cells were fixed and stained 7 days post-bleomycin treatment. Non-treated cultures, confluent at the time of staining, were used as controls.

[1] = system: primary human WI-38 fibroblasts; assay: as above; format: cell-based; conditions: 15 ug/ml for 72 hours; stained 7 days post-treatment
Description: as §1

In the case of bleomycin, the cellular morphology (A549 cancer cells) is reported as “Enlarged cellular morphology” and the cellular morphology [1] is reported as “Enlarged cellular morphology”.
